{"source": "patent US20240108601A1", "about": "“TREATMENT OF MENTAL DISORDERS” (GH Research Ireland Limited, priority 2022, published 2024)", "key": {"[1]": {"tested_on": "Salmonella typhimurium TA98, TA100, TA1535 and TA1537", "assay": "Bacterial reverse mutation test", "type": "cell-based", "details": "up to 5000 μg/plate; with and without S-9", "description": "(§1) These conditions included treatments at concentrations up to 5000 μg/plate (the maximum recommended concentration according to current regulatory guidelines), in the absence and in the presence of a rat liver metabolic activation system (S-9)."}, "[2]": {"tested_on": "Escherichia coli WP2 uvrA pKM101", "assay": "Bacterial reverse mutation test", "type": "cell-based", "details": "up to 5000 μg/plate; with and without S-9", "description": "as §1"}, "[3]": {"assay": "Pharmacokinetics of 5-MeO-DMT and bufotenine after single inhaled dose", "type": "in vivo, human", "details": "for Cmax: human, plasma, inhaled or intranasal, inhalation, n=8, read-out: Median Cmax", "description": "Blood samples were obtained at 1; 2; 4; 7; 10; 15; 20; 30; 45 min and 1; 1.5; 2; 3; 4 hours after administration.\nPK parameters were generated by algebraic analysis of the concentration versus time plots for each individual. The analysis was carried out using the software Phoenix WinNonlin 6.3."}, "[4]": {"assay": "LC-MS/MS of 5-MeO-DMT, bufotenine and 5-MIAA in urine, serum and breastmilk of lactating PPD patient; infant exposure estimates", "details": "for Breastmilk concentration / Serum concentration / Urine concentration: second patient", "excerpt": "When determining the potential impact of maternal drug administration on a breastfed infant, it is standard practice to calculate the Relative Infant Dose (RID) (Bennett, P. N., and L. J. Notarianni. “Risk from drugs in breast milk: an analysis by relative dose.” Br J Clin Pharmacol 42.5 (1996): P673-4). The RID is the dosage (in μg/kg/day) the infant is exposed to by the intake of breast milk, divided by the dosage (in μg/kg/day) the mother receives.\nUsing estimates for daily intake of breast milk and the number of feeds as well as the measured breast milk concentrations the exposure of the infant can be determined.\nFor example, a published estimate for daily intake of breast milk as a function of infant weight is 150 ml/kg/day. To model the exposure, it is assumed that an infant of 5 kg is fed three times over 24 hours, receiving 250 ml breast milk each time.\nThe second patient was lactating, and, per the clinical trial protocol, breastmilk samples were collected pre-dosing and at multiple timepoints after administration of the last dose. […] Similar analyses were carried out on patient serum and urine samples."}, "[5]": {"details": "female, human, breast milk, inhaled"}}, "note": "Like-named read-outs stand apart in the source and are kept apart here.", "data": [{"smiles": "COc1ccc2[nH]cc(CCN(C)C)c2c1", "note": "[5-MeO-DMT]", "values": [{"measurement": "Mutation induction", "setting": "[1]", "value": "did not induce mutation"}, {"measurement": "Mutation induction", "setting": "[2]", "value": "did not induce mutation"}, {"measurement": "Detectability in plasma", "setting": "[3]; 3 hours after inhalation, 6, 12, 18 mg", "value": "no longer detectable"}, {"measurement": "Cmax", "setting": "[3]; 6 mg group", "value": 11.8, "unit": "ng/mL"}, {"measurement": "Cmax", "setting": "[3]; 12 mg group", "value": 22.9, "unit": "ng/mL"}, {"measurement": "Cmax", "setting": "[3]; 18 mg group", "value": 38.5, "unit": "ng/mL"}, {"measurement": "Accumulation upon repeated administration", "setting": "[3]; repeated administration within 1 to 4 hours", "value": "No accumulation"}, {"measurement": "Daily Infant Dosage (DID) per kg", "setting": "[4]; 5 kg infant, three feeds of 250 ml", "value": 0.0001385, "unit": "mg/kg/day"}, {"measurement": "concentration at 1 h", "setting": "[4]; [5]", "value": 2.17, "unit": "ng/mL"}, {"measurement": "concentration at 2.5 h", "setting": "[4]; [5]", "value": 0.561, "unit": "ng/mL"}, {"measurement": "concentration at 8.5 h", "setting": "[4]; [5]", "value": 0.0421, "unit": "ng/mL"}, {"measurement": "concentration at 1 h", "setting": "[4]; female, human, serum, inhaled", "value": 0.133, "unit": "ng/mL"}, {"measurement": "Breastmilk concentration", "setting": "[4]; 1.0 hrs after last dose", "value": 2167, "unit": "pg/mL"}, {"measurement": "Serum concentration", "setting": "[4]; 2.5 hrs after last dose", "value": "BLQ (Below limit of quantification. The lower limit of quantification is 25 pg/ml for both 5-MeO-DMT and 5-MIAA in both serum and breastmilk; it is 25 pg/ml in urine for 5-MeO-DMT and 250 pg/ml for 5-MIAA in urine.)"}, {"measurement": "Urine concentration", "setting": "[4]; 8.5 hrs after last dose", "value": "BLQ (Below limit of quantification. The lower limit of quantification is 25 pg/ml for both 5-MeO-DMT and 5-MIAA in both serum and breastmilk; it is 25 pg/ml in urine for 5-MeO-DMT and 250 pg/ml for 5-MIAA in urine.)"}, {"measurement": "Breastmilk concentration", "setting": "[4]; 24.0 hrs after last dose", "value": "did not detect and BLG"}, {"measurement": "Serum concentration", "setting": "[4]; 24.0 hrs after last dose", "value": "BLQ (Below limit of quantification. The lower limit of quantification is 25 pg/ml for both 5-MeO-DMT and 5-MIAA in both serum and breastmilk; it is 25 pg/ml in urine for 5-MeO-DMT and 250 pg/ml for 5-MIAA in urine.)"}, {"measurement": "Urine concentration", "setting": "[4]; 24.0 hrs after last dose", "value": "BLQ (Below limit of quantification. The lower limit of quantification is 25 pg/ml for both 5-MeO-DMT and 5-MIAA in both serum and breastmilk; it is 25 pg/ml in urine for 5-MeO-DMT and 250 pg/ml for 5-MIAA in urine.)"}, {"measurement": "Breastmilk concentration", "setting": "[4]; 120.0 hrs after last dose", "value": "BLQ (Below limit of quantification. The lower limit of quantification is 25 pg/ml for both 5-MeO-DMT and 5-MIAA in both serum and breastmilk; it is 25 pg/ml in urine for 5-MeO-DMT and 250 pg/ml for 5-MIAA in urine.)"}, {"measurement": "Serum concentration", "setting": "[4]; 120.0 hrs after last dose", "value": "BLQ (Below limit of quantification. The lower limit of quantification is 25 pg/ml for both 5-MeO-DMT and 5-MIAA in both serum and breastmilk; it is 25 pg/ml in urine for 5-MeO-DMT and 250 pg/ml for 5-MIAA in urine.)"}, {"measurement": "Urine concentration", "setting": "[4]; 120.0 hrs after last dose", "value": "BLQ (Below limit of quantification. The lower limit of quantification is 25 pg/ml for both 5-MeO-DMT and 5-MIAA in both serum and breastmilk; it is 25 pg/ml in urine for 5-MeO-DMT and 250 pg/ml for 5-MIAA in urine.)"}, {"measurement": "Breastmilk concentration", "setting": "[4]; −24.0 hrs (pre-dosing)", "value": "BLQ (Below limit of quantification. The lower limit of quantification is 25 pg/ml for both 5-MeO-DMT and 5-MIAA in both serum and breastmilk; it is 25 pg/ml in urine for 5-MeO-DMT and 250 pg/ml for 5-MIAA in urine.)"}, {"measurement": "Serum concentration", "setting": "[4]; −24.0 hrs (pre-dosing)", "value": "BLQ (Below limit of quantification. The lower limit of quantification is 25 pg/ml for both 5-MeO-DMT and 5-MIAA in both serum and breastmilk; it is 25 pg/ml in urine for 5-MeO-DMT and 250 pg/ml for 5-MIAA in urine.)"}, {"measurement": "Urine concentration", "setting": "[4]; −24.0 hrs (pre-dosing)", "value": "BLQ (Below limit of quantification. The lower limit of quantification is 25 pg/ml for both 5-MeO-DMT and 5-MIAA in both serum and breastmilk; it is 25 pg/ml in urine for 5-MeO-DMT and 250 pg/ml for 5-MIAA in urine.)"}]}]}
